Test results reported in the supplement of paper PMC10307832.

Assays:
Assay in all cases: relative viability (nuclei count vs DMSO), 5 days (fraction); higher = more cells survive
Carfilzomib + Lapatinib = compound: CC(C)C[C@H](NC(=O)[C@H](CCc1ccccc1)NC(=O)CN1CCOCC1)C(=O)N[C@@H](Cc1ccccc1)C(=O)N[C@@H](CC(C)C)C(=O)[C@@]1(C)CO1 [Carfilzomib] + CS(=O)(=O)CCNCc1ccc(-c2ccc3ncnc(Nc4ccc(OCc5cccc(F)c5)c(Cl)c4)c3c2)o1 [Lapatinib] (partner 2 µM)
Procedure, shortened: (§1)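 Nuclei were stained with Hoechst during a one-step fixation (final 0.05% Triton X-100, 1% formaldehyde, 1 ug/ml Hoechst) carried out 5 days after dosing, then counted on 4× images. The cells, lung cancer lines in 1536-well plates, had been dosed by pin tool the day after seeding with one drug alone or a fixed anchor-drug dose plus five library-drug doses (not always all listed) in √10 steps. Relative viability is the nuclei count in treated wells divided by that in vehicle wells, and each value is the median of duplicate plates.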

Crizotinib + OSI-027 = compound: C[C@@H](Oc1cc(-c2cnn(C3CCNCC3)c2)cnc1N)c1c(Cl)ccc(F)c1Cl [Crizotinib] + COc1cccc2cc(-c3nc([C@H]4CC[C@H](C(=O)O)CC4)n4ncnc(N)c34)[nH]c12 [OSI-027] (partner 0.5 µM)
Procedure, shortened: as §1

Crizotinib + Lapatinib = compound: C[C@@H](Oc1cc(-c2cnn(C3CCNCC3)c2)cnc1N)c1c(Cl)ccc(F)c1Cl [Crizotinib] + CS(=O)(=O)CCNCc1ccc(-c2ccc3ncnc(Nc4ccc(OCc5cccc(F)c5)c(Cl)c4)c3c2)o1 [Lapatinib] (partner 2 µM)
Procedure, shortened: as §1

Olaparib + Vorinostat = compound: O=C(c1cc(Cc2n[nH]c(=O)c3ccccc23)ccc1F)N1CCN(C(=O)C2CC2)CC1 [Olaparib] + O=C(CCCCCCC(=O)Nc1ccccc1)NO [Vorinostat] (partner 1 µM)
Procedure, shortened: as §1

| Cell Line | relative viability (Carfilzomib + Lapatinib; first compound 0.001 µM) | relative viability (Carfilzomib + Lapatinib; first compound 0.003162 µM) | relative viability (Carfilzomib + Lapatinib; first compound 0.01 µM) | relative viability (Carfilzomib + Lapatinib; first compound 0.03162 µM) | relative viability (Carfilzomib + Lapatinib; first compound 0.1 µM) | relative viability (Crizotinib + OSI-027; first compound 0.01 µM) | relative viability (Crizotinib + OSI-027; first compound 0.03162 µM) | relative viability (Crizotinib + OSI-027; first compound 0.1 µM) | relative viability (Crizotinib + OSI-027; first compound 0.3162 µM) | relative viability (Crizotinib + OSI-027; first compound 1 µM) | relative viability (Crizotinib + Lapatinib; first compound 0.01 µM) | relative viability (Crizotinib + Lapatinib; first compound 0.1 µM) | relative viability (Crizotinib + Lapatinib; first compound 0.3162 µM) | relative viability (Crizotinib + Lapatinib; first compound 1 µM) | relative viability (Olaparib + Vorinostat; first compound 0.08 µM) | relative viability (Olaparib + Vorinostat; first compound 0.253 µM) | relative viability (Olaparib + Vorinostat; first compound 2.53 µM) | relative viability (Olaparib + Vorinostat; first compound 8 µM) | relative viability (Crizotinib + Lapatinib; first compound 0.03162 µM) |
| --- | --- | --- | --- | --- | --- | --- | --- | --- | --- | --- | --- | --- | --- | --- | --- | --- | --- | --- | --- |
| 201T | 1.02 | 0.961 | 1.05 | 1.04 | 0.88 | 0.635 | 0.744 | 0.668 | 0.77 | 0.698 | 0.891 | 1.03 | 1.05 | 1.06 | 1.07 | 0.912 | 0.954 | 0.947 |  |
| A549 | 0.885 | 1.05 | 0.931 | 0.359 | 0.0624 |  |  |  |  |  | 0.996 | 1.03 |  | 1.05 |  |  |  |  | 1.06 |
| A-427 | 0.925 | 1.09 | 1.09 | 0.972 | 0.157 | 0.352 | 0.447 | 0.414 |  | 0.441 | 0.852 | 1.09 |  | 1.12 | 0.911 | 0.863 | 0.871 | 0.76 | 1.07 |
| ABC-1 | 1.08 | 1.54 | 1.2 | 0.499 | 0.516 |  | 0.526 | 0.426 | 0.422 | 0.402 | 1.2 | 1.16 | 1.12 | 1.36 | 1.13 |  | 1.08 | 1.07 | 1.1 |
| BEN | 0.635 | 0.819 | 0.854 | 0.553 | 0.267 | 0.308 | 0.3 | 0.296 | 0.307 | 0.286 | 0.697 | 0.642 | 0.719 | 0.749 | 0.625 | 0.606 | 0.582 | 0.566 | 0.69 |
| CAL-12T |  | 0.691 | 0.759 | 0.618 | 0.207 | 0.639 | 0.71 | 0.67 |  | 0.586 | 0.664 | 0.658 |  | 0.608 | 1.15 | 0.663 | 0.917 | 0.687 | 0.771 |
| COR-L23 | 0.906 | 1.16 | 0.895 | 0.0642 | 0.0567 | 0.742 | 0.73 | 0.674 | 0.76 | 0.723 | 0.835 | 0.983 | 0.985 | 0.985 | 0.508 | 0.43 | 0.228 | 0.239 | 1.1 |
| COR-L 105 | 0.348 | 0.377 | 0.386 | 0.324 | 0.289 | 0.577 | 0.803 | 0.657 | 0.562 | 0.728 | 0.345 | 0.373 | 0.32 | 0.374 | 0.782 | 0.717 | 0.781 | 0.79 | 0.38 |
| Calu-6 | 1.08 | 1.12 | 1.13 | 0.135 | 0.116 |  |  |  |  |  | 1.07 | 1.07 | 1.05 | 0.991 |  |  |  |  | 1.1 |
| ChaGo-K-1 |  |  |  |  |  | 0.438 | 0.675 | 0.502 | 0.435 | 0.53 |  |  |  |  | 0.815 | 0.665 | 0.63 | 0.416 |  |
| EBC-1 | 0.228 | 0.203 | 0.208 | 0.169 | 0.144 |  |  |  |  |  | 0.213 | 0.197 | 0.206 | 0.205 |  |  |  |  | 0.223 |
| EKVX | 0.221 | 0.416 | 0.212 | 0.183 | 0.137 | 0.744 | 0.737 | 0.756 | 0.651 | 0.744 | 0.218 | 0.175 | 0.186 | 0.186 | 0.667 | 0.679 | 0.776 | 0.646 | 0.191 |
| EMC-BAC-2 | 0.89 | 0.958 | 0.879 | 0.843 | 0.471 | 0.431 | 0.391 | 0.342 | 0.295 | 0.36 | 0.852 | 0.911 | 0.749 | 0.887 | 0.584 | 0.405 | 0.703 | 0.446 | 0.897 |
| EPLC-272H | 0.804 | 1.47 | 1.06 | 0.298 | 0.0991 | 0.312 | 0.253 | 0.287 | 0.252 | 0.259 | 0.861 | 0.945 | 0.9 | 1.11 | 0.513 | 0.386 | 0.472 | 0.4 | 0.996 |
| H3255 | 0.252 | 0.338 | 0.259 | 0.225 | 0.296 | 0.6 | 0.652 | 0.633 | 0.509 | 0.61 | 0.254 | 0.234 | 0.238 | 0.219 | 0.859 | 0.722 | 0.904 | 0.757 | 0.267 |
| HARA | 0.817 | 0.911 | 0.882 | 0.0695 | 0.0699 | 0.543 | 0.504 | 0.46 |  | 0.432 | 0.662 | 0.636 | 0.824 | 0.667 | 0.45 | 0.472 | 0.553 | 0.507 | 0.699 |
| HCC-15 | 0.857 | 0.872 | 0.918 | 0.428 | 0.176 | 0.626 | 0.754 | 0.633 |  | 0.568 | 0.831 | 0.886 | 0.549 | 0.836 | 0.956 | 0.819 | 0.83 | 0.687 | 0.881 |
| HCC-44 | 1.07 | 0.985 | 1.16 | 0.878 | 0.245 | 0.409 | 0.546 | 0.611 | 0.54 | 0.371 | 0.96 | 1.14 |  | 1.05 | 1.12 | 1.06 | 1.22 | 1.16 | 1.02 |
| HCC-78 | 0.791 | 0.701 | 0.9 | 0.165 | 0.142 |  | 0.365 | 0.29 | 0.307 | 0.34 | 0.77 | 0.697 | 0.261 | 1.26 | 0.443 | 0.429 | 0.377 | 0.557 | 0.828 |
